US20260242372A1, “NOVEL IMIDAZOPYRIDINE AND PYRAZOLOPYRIDINE SULFONAMIDE DERIVATIVES” (Hoffmann-La Roche Inc., priority 2022, published 2026)

target: human GPR17 short isoform (Homo sapiens, UniProt Q13304); assay: GPR17 cAMP assay (hGPR17 cAMP, TR-FRET, antagonist mode); type: cell-based; conditions: CHO-K1 cells stably expressing human GPR17 short isoform; EC80 of agonist MDL29,951; forskolin 15 μM; 30 min at room temperature
Description: CHO-K1 cells stably expressing vector containing untagged human GPR17 short isoform (Roche) were cultured at 37° C./5% CO2 in DMEM (Dulbecco's Modified Eagle Medium): F-12 (1:1) supplemented with 10% foetal bovine serum and 400 μg/ml Geneticin.
Changes in intracellular cyclic adenosine monophosphate (cAMP) levels were quantified using the Nano-TRF Detection Assay kit (Roche Diagnostics, Cat. No. 05214386001). This assay allows for direct cAMP quantification in a homogeneous solution. CAMP is detected based on time-resolved fluorescence energy transfer (TR-FRET) and competitive binding of ruthenylated cAMP and endogenous cAMP to an anti-cAMP monoclonal antibody labeled with AlexaFluor-700. The Ruthenium complex serves as the FRET donor and transfers energy to AlexaFluor-700. The FRET signal is inversely proportional to the CAMP concentration.
CHO-GPR17S cells were detached with Accutase and resuspended in assay buffer consisting of Hank's Balanced Salt Solution (HBSS), 10 mM HEPES (4-(2-hydroxyethyl) piperazine-1-ethanesulfonic acid solution) and 0.1% bovine serum albumin (pH 7.4). The cells were seeded in black 384-well plates (Corning) at a density of 10′000 cells/20 μl assay buffer until the addition of compounds.
Test antagonist compounds were serially diluted in dimethyl sulfoxide (DMSO) and spotted in 384-well plates. The compounds were then diluted in HBSS buffer supplemented with an EC80 concentration of MDL29,951 (3-(2-Carboxy-4,6-dichloroindol-3-yl) propionic acid) (GPR17 agonist) plus 3-Isobutyl-1-methylxanthine (IBMX) (0.5 mM final concentration) and added to the cells at room temperature. Forskolin (15 μM final concentration) was added 5 minutes after the test compounds and the cells were incubated at room temperature for 30 minutes. The assay was stopped by adding cAMP detection mix (containing detergents for cell lysis) for 90 minutes at room temperature.
Cellular cAMP was measured using a Paradigm reader (Molecular Devices). The raw data was used to calculate the FRET signal based on the assay's P-factor as per cAMP kit instructions. The data was normalized to the maximal activity of a reference antagonist and dose response curves were fitted to the percent activity of the test compounds using a sigmoidal dose response model (Genedata Screener).

Sequence of human GPR17 short isoform (Q13304 29-367): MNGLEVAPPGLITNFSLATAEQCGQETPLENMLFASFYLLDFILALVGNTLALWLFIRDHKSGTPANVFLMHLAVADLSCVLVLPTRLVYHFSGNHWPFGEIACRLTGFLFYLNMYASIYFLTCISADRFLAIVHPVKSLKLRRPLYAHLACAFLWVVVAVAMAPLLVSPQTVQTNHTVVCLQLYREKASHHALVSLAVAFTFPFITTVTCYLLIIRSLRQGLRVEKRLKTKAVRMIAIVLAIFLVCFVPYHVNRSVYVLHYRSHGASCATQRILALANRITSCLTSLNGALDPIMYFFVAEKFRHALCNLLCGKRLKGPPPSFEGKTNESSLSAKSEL

Point of comparison: `N#CCc1cc(F)c(NS(=O)(=O)c2cnn3cc(Br)ccc23)cc1F` [Example 92, 6-bromo-N-[4-(cyanomethyl)-2,5-difluoro-phenyl]pyrazolo[1,5-a]pyridine-3-sulfonamide], IC50 115 nM. Against it:
- COc1nc(OCC(F)F)c(F)cc1NS(=O)(=O)c1cnc2c(C#N)c(OC(F)F)ccn12 [Example 65, 8-cyano-N-[6-(2,2-difluoroethoxy)-5-fluoro-2-methoxy-3-pyridyl]-7-(difluoromethoxy)imidazo[1,2-a]pyridine-3-sulfonamide] — 2.3-fold higher, 270 nM
- Cc1ccn2c(S(=O)(=O)Nc3cc(F)c(OC(F)F)nc3OC(F)F)cnc2c1C#N [Example 66, N-[2,6-bis(difluoromethoxy)-5-fluoro-3-pyridyl]-8-cyano-7-methyl-imidazo[1,2-a]pyridine-3-sulfonamide] — 2.5-fold higher, 289 nM
- Cc1ccn2c(S(=O)(=O)Nc3cc(F)c(CC#N)cc3F)cnc2c1C#N [Example 67, 8-cyano-N-[4-(cyanomethyl)-2,5-difluoro-phenyl]-7-methyl-imidazo[1,2-a]pyridine-3-sulfonamide] — 2.6-fold higher, 301 nM
- N#CCc1cc(F)c(NS(=O)(=O)c2cnc3c(F)c(Cl)ccn23)cc1F [Example 68, 7-chloro-N-[4-(cyanomethyl)-2,5-difluoro-phenyl]-8-fluoro-imidazo[1,2-a]pyridine-3-sulfonamide] — 2.9-fold higher, 329 nM
- COc1nc(OCC(F)F)c(F)cc1NS(=O)(=O)c1cnc2c(C#N)cccn12 [Example 69, 8-cyano-N-[6-(2,2-difluoroethoxy)-5-fluoro-2-methoxy-3-pyridyl]imidazo[1,2-a]pyridine-3-sulfonamide] — 3.4-fold higher, 393 nM
- COc1nc(C2COC2)c(F)cc1NS(=O)(=O)c1cnc2cc(Cl)ccn12 [Example 70, 7-chloro-N-[5-fluoro-2-methoxy-6-(oxetan-3-yl)-3-pyridyl]imidazo[1,2-a]pyridine-3-sulfonamide] — 3.5-fold higher, 407 nM
- COc1nc(OCC(F)F)c(F)cc1NS(=O)(=O)c1cnc2c(C)cccn12 [Example 71, N-[6-(2,2-difluoroethoxy)-5-fluoro-2-methoxy-3-pyridyl]-8-methyl-imidazo[1,2-a]pyridine-3-sulfonamide] — 3.6-fold higher, 413 nM
- COc1nc(OCC(F)F)c(F)cc1NS(=O)(=O)c1cnc2n1CC(C)C2 (centres unmarked) [Example 72, N-[6-(2,2-difluoroethoxy)-5-fluoro-2-methoxy-3-pyridyl]-6-methyl-6,7-dihydro-5H-pyrrol[1,2-a]imidazole-3-sulfonamide] — 3.9-fold higher, 449 nM
- COc1ccn2c(S(=O)(=O)Nc3cc(F)c(CC#N)cc3F)cnc2n1 [Example 73, N-[4-(cyanomethyl)-2,5-difluoro-phenyl]-7-methoxy-imidazo[1,2-a]pyrimidine-3-sulfonamide] — 7.6-fold higher, 876 nM
- COc1nc(NS(=O)(=O)c2cnc3cc(Cl)ccn23)ncc1OCCF [Example 74, 7-chloro-N-[5-(2-fluoroethoxy)-4-methoxy-pyrimidin-2-yl]imidazo[1,2-a]pyridine-3-sulfonamide] — 7.8-fold higher, 897 nM
- COc1nc(OCC(F)F)c(F)cc1NS(=O)(=O)c1cnc2n1CCC2C (centres unmarked) [Example 75, N-[6-(2,2-difluoroethoxy)-5-fluoro-2-methoxy-3-pyridyl]-7-methyl-6,7-dihydro-5H-pyrrol[1,2-a]imidazole-3-sulfonamide] — 8.5-fold higher, 974 nM
- Cc1ccn2c(S(=O)(=O)Nc3cc(F)c(CC#N)cc3F)cnc2n1 [Example 76, N-[4-(cyanomethyl)-2,5-difluoro-phenyl]-7-methyl-imidazo[1,2-a]pyrimidine-3-sulfonamide] — 9-fold higher, 1030 nM
- COc1nc(CC#N)c(F)cc1NS(=O)(=O)c1cnn2cc(Br)ccc12 [Example 77, 6-bromo-N-[6-(cyanomethyl)-5-fluoro-2-methoxy-3-pyridyl]pyrazolo[1,5-a]pyridine-3-sulfonamide] — 19-fold lower, 6 nM
- COc1nc(OCC(F)F)c(F)cc1NS(=O)(=O)c1cnn2cc(Br)ccc12 [Example 78, 6-bromo-N-[6-(2,2-difluoroethoxy)-5-fluoro-2-methoxy-3-pyridyl]pyrazolo[1,5-a]pyridine-3-sulfonamide] — 12-fold lower, 10 nM
- COc1nc(NS(=O)(=O)c2cnn3cc(Br)ccc23)c(F)cc1CC#N [Example 79, 6-bromo-N-[5-(cyanomethyl)-3-fluoro-6-methoxy-2-pyridyl]pyrazolo[1,5-a]pyridine-3-sulfonamide] — 5.8-fold lower, 20 nM
- COc1nc(NS(=O)(=O)c2cnn3cc(Br)ccc23)c(F)cc1OCCF [Example 80, 6-bromo-N-[3-fluoro-5-(2-fluoroethoxy)-6-methoxy-2-pyridyl]pyrazolo[1,5-a]pyridine-3-sulfonamide] — 4.4-fold lower, 26 nM
- COc1nc(NS(=O)(=O)c2cnn3cc(Br)ccc23)c(F)cc1OCC(F)F [Example 81, 6-bromo-N-[5-(2,2-difluoroethoxy)-3-fluoro-6-methoxy-2-pyridyl]pyrazolo[1,5-a]pyridine-3-sulfonamide] — 2.3-fold lower, 49 nM
- COc1nc(C2CC2)c(F)cc1NS(=O)(=O)c1cnn2cc(Br)ccc12 [Example 82, 6-bromo-N-(6-cyclopropyl-5-fluoro-2-methoxy-3-pyridyl)pyrazolo[1,5-a]pyridine-3-sulfonamide] — within 1.5-fold, 100 nM
- COc1nc(OCC(F)F)c(F)cc1NS(=O)(=O)c1cnn2c1CCC(C)C2 (centres unmarked) [Example 83, N-[6-(2,2-difluoroethoxy)-5-fluoro-2-methoxy-3-pyridyl]-6-methyl-4,5,6,7-tetrahydropyrazolo[1,5-a]pyridine-3-sulfonamide] — within 1.5-fold, 100 nM
- COc1nc(OCC(F)F)c(F)cc1NS(=O)(=O)c1cnn2c(C#N)c(C)ccc12 [Example 84, 7-cyano-N-[6-(2,2-difluoroethoxy)-5-fluoro-2-methoxy-3-pyridyl]-6-methyl-pyrazolo[1,5-a]pyridine-3-sulfonamide] — within 1.5-fold, 130 nM
- O=S(=O)(Nc1cc(F)c(OC(F)F)cc1F)c1cnn2cc(Br)ccc12 [Example 85, 6-bromo-N-[4-(difluoromethoxy)-2,5-difluoro-phenyl]pyrazolo[1,5-a]pyridine-3-sulfonamide] — 2.2-fold higher, 251 nM
- COc1nc(C2COC2)c(F)cc1NS(=O)(=O)c1cnn2cc(Br)ccc12 [Example 87, 6-bromo-N-[5-fluoro-2-methoxy-6-(oxetan-3-yl)-3-pyridyl]pyrazolo[1,5-a]pyridine-3-sulfonamide] — 3.2-fold higher, 367 nM
- COc1nc(OCC(F)F)c(F)cc1NS(=O)(=O)c1cnn2c1COC(C)C2 (centres unmarked) [Example 88, N-[6-(2,2-difluoroethoxy)-5-fluoro-2-methoxy-3-pyridyl]-6-methyl-6,7-dihydro-4H-pyrazolo[5,1-c][1,4]oxazine-3-sulfonamide] — 6-fold higher, 692 nM
- COc1nc(NS(=O)(=O)c2cnc3cc(Cl)ccn23)nc(OC)c1OCCF [Example 89, 7-chloro-N-[5-(2-fluoroethoxy)-4,6-dimethoxy-pyrimidin-2-yl]imidazo[1,2-a]pyridine-3-sulfonamide] — within 1.5-fold, 139 nM
- COc1nc(NS(=O)(=O)c2cnc3cc(Cl)ccn23)nc(OC)c1OCC(F)F [Example 90, 7-chloro-N-[5-(2,2-difluoroethoxy)-4,6-dimethoxy-pyrimidin-2-yl]imidazo[1,2-a]pyridine-3-sulfonamide] — the same, 115 nM
- COc1nc(NS(=O)(=O)c2cnc3cc(Br)ccn23)ncc1OCCF [Example 91, 7-bromo-N-[5-(2-fluoroethoxy)-4-methoxy-pyrimidin-2-yl]imidazo[1,2-a]pyridine-3-sulfonamide] — 1.8-fold higher, 211 nM
- COc1cc(CC#N)c(F)cc1NS(=O)(=O)c1cnc2cc(C3CC3)ccn12 [Example 93, N-[4-(cyanomethyl)-5-fluoro-2-methoxy-phenyl]-7-cyclopropyl-imidazo[1,2-a]pyridine-3-sulfonamide] — 29-fold lower, 4 nM
- COc1nc(OCC(F)F)c(F)cc1NS(=O)(=O)c1cnc2cc(C3CC3)ccn12 [Example 94, 7-cyclopropyl-N-[6-(2,2-difluoroethoxy)-5-fluoro-2-methoxy-3-pyridyl]imidazo[1,2-a]pyridine-3-sulfonamide] — 13-fold lower, 9 nM
- COc1nc(OC(F)F)c(F)cc1NS(=O)(=O)c1cnc2cc(C3CC3)ccn12 [Example 95, 7-cyclopropyl-N-[6-(difluoromethoxy)-5-fluoro-2-methoxy-3-pyridyl]imidazo[1,2-a]pyridine-3-sulfonamide] — 8.8-fold lower, 13 nM
- COc1nc(NS(=O)(=O)c2cnc3cc(C4CC4)ccn23)c(F)cc1CC#N [Example 96, N-[5-(cyanomethyl)-3-fluoro-6-methoxy-2-pyridyl]-7-cyclopropyl-imidazo[1,2-a]pyridine-3-sulfonamide] — 3-fold lower, 38 nM
- COc1nc(NS(=O)(=O)c2cnc3nc(C4CC4)ccn23)c(F)cc1OC(F)F [Example 97, 7-cyclopropyl-N-[5-(difluoromethoxy)-3-fluoro-6-methoxy-2-pyridyl]imidazo[1,2-a]pyrimidine-3-sulfonamide] — 5-fold lower, 23 nM
